# Earlier results in US20260232611A1, “USE OF (S)-3-AMINO-4-(DIFLUOROMETHYLENYL) CYCLOPENT-1-ENE-1-CARBOXYLIC ACID IN THE TREATMENT OF RHEUMATOID ARTHRITIS” (Ovid Therapeutics Inc., priority 2023, published 2026).
# What was measured:
# [1] = system: aspartate aminotransferase (Asp-AT); settings: unlike vigabatrin
# [2] = system: alanine aminotransferase (Ala-AT); settings: unlike vigabatrin
smiles,measurement,setting,value
"N[C@H]1C[C@@H](C(=O)O)CC1=C(F)F [CPP-115, (1S,3S)-3-amino+difluoromethylenyl-1-cyclopentanoic acid]",inactivation or inhibition of off-target enzyme,[1],not to inactivate or inhibit
same,inactivation or inhibition of off-target enzyme,[2],not to inactivate or inhibit
